In patent US5223504A, “Xanthine compounds and compositions, and methods of using them” (Laboratorios Almirall SA, priority 1989, dated 1993):

Tests used:
PDE IV = test: Guinea-pig right ventricle strips sensitized with a PDE III inhibitor (e.g. amrinone): increase in developed tension (PDE IV inhibitory activity); type: cell-based; details: concentration causing 50% increase in developed tension; strips pre-treated with selective PDE III inhibitor (e.g. amrinone) 10 minutes before; 37° C., 1 Hz; read-out: Guinea-Pig Sensitized right ventricle strips (EC50μ M)
Protocol: (§1) There is, however, a synergistic interaction between selective PDE III and PDE IV inhibitors in guinea-pig ventricle. […] There were then mounted in organ baths containing modified Krebs-Henseleit solution of the following composition (mM): NaCl 118; NaHCO3 25; Glucose 11; KCl 5.4; CaCl2 2.5; NaH2PO4 1.2 and MgCl2 0.8. The physiological buffer was maintained at 37° C. and continually aerated with 95% O2 / 5% CO2 v/v. The preparations were placed under 1 g resting tension and electrically stimulated to contract at 1 Hz whilst force of contraction was measured using an isometric force transducer. Preparations were equilibrated for 60 minutes during which they were washed every 15 minutes with fresh buffer. […] Concentrations causing a 50% increase (EC50) were calculated.

PDE III = target: T1, PDE III (Cavia porcellus, UniProt H0VIU9); test: Non-sensitized guinea-pig right ventricle strips: increase in developed tension (PDE III inhibitory activity); type: cell-based; details: concentration causing 50% increase in developed tension; untreated (non-sensitized) strips; 37° C., 1 Hz; read-out: Guinea-Pig Non-Sensitized right ventricle strips (EC50μ M)
T1 construct: their hearts were removed and 2 ventricular preparations; from tissue; host or cells: guinea-pig right ventricle strips
T1 sequence (H0VIU9 1-1132): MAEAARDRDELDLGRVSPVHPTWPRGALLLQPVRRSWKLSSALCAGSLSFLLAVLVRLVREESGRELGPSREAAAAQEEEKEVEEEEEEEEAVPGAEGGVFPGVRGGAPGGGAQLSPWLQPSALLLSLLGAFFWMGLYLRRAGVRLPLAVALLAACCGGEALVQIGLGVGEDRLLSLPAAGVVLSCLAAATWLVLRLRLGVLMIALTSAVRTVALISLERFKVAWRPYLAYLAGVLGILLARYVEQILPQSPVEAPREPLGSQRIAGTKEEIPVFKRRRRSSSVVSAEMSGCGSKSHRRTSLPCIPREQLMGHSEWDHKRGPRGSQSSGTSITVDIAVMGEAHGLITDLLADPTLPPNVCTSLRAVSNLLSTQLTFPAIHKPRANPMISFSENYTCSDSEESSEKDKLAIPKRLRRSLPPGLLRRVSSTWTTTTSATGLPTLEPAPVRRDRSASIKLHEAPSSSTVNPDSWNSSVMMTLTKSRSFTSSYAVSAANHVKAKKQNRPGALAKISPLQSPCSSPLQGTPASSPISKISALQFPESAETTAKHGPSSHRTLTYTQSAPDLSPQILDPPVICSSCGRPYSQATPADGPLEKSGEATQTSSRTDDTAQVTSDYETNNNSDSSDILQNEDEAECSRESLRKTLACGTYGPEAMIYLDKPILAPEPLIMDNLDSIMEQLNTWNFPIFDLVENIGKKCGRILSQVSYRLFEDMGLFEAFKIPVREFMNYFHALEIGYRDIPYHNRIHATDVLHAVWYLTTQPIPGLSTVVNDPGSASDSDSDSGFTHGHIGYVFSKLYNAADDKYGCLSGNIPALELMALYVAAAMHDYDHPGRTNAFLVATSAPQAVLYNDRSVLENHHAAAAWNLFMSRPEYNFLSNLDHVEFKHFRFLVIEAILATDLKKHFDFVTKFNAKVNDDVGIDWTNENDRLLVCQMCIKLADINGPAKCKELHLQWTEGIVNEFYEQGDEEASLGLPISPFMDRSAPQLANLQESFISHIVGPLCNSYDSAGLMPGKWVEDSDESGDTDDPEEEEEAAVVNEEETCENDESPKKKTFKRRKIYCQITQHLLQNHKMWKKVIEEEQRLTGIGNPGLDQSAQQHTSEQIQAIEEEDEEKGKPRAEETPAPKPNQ
Protocol: as §1

[1] = system: isolated guinea-pig ventricles; details: literature (Gristwood and Owen, Br. J. Pharmacol., 87, 91P., 1985); cited from earlier work

Row | SMILES | EC50 (PDE IV) [µM] | EC50 (PDE III) [µM] | inotropic response in isolated guinea-pig ventricles [1]
1 | CCCCn1c(=O)c2[nH]cnc2n(-c2cccc(OC)c2)c1=O [Compound 21, 1-n-butyl-3-(3-methoxyphenyl)-xanthine] | 1.2 | > 100 | –
2 | Cn1c(=O)c2[nH]cnc2n(-c2ccccc2)c1=O [Compound A, 1methyl-3-phenylxanthine, reference compound] | 8.9 | > 100 | –
3 | CCCn1c(=O)c2[nH]cnc2n(-c2cccc([N+](=O)[O-])c2)c1=O [Compound 10] | 0.4 | > 100 | –
4 | CCCn1c(=O)c2[nH]cnc2n(-c2ccc(Cl)c(Cl)c2)c1=O [Compound 12, 1-n-propyl-3-(3,4-dicholorophenyl)-xanthine] | 1.3 | > 100 | –
5 | CCCn1c(=O)c2[nH]cnc2n(-c2cccc(OC)c2)c1=O [Compound 9] | 0.2 | > 100 | –
6 | Cn1c(=O)c2[nH]cnc2n(C)c1=O [THEOPHYLLINE, reference compound] | 1520 | 1000 | –
7 | CCCn1c(=O)c2[nH]cnc2n(-c2cccc(Cl)c2)c1=O [Compound 2] | 0.1 | > 100 | –
8 | COc1ccc(C2CNC(=O)C2)cc1OC1CCCC1 (stereo not shown) [rolipram] | – | – | have no effect
9 | CCCn1c(=O)c2[nH]cnc2n(-c2ccc(Br)cc2)c1=O [Compound 5] | 0.9 | > 100 | –
10 | CCCCn1c(=O)c2[nH]cnc2n(-c2ccc(OC)cc2)c1=O [Compound 20] | 0.3 | > 100 | –
11 | CC(=O)Nc1ccc(-c2c[nH]c(=O)cn2)cc1 [SK&F 94120] | – | – | produce a positive inotropic response
12 | CCCn1c(=O)c2[nH]cnc2n(-c2ccc(Cl)cc2)c1=O [Compound 1, 1-n-propyl-3-(4-chlorophenyl)-xanthine] | 1.6 | > 100 | –
13 | CCCCn1c(=O)c2[nH]cnc2n(-c2ccc(F)cc2)c1=O [Compound 18] | 0.2 | > 100 | –
14 | CCCCCCn1c(=O)c2[nH]cnc2n(-c2ccc3c(c2)OCO3)c1=O [Compound 36, 1-n-hexyl-3-(3,4-methylenedioxyphenyl)-xanthine] | 1 | > 100 | –
15 | CCCn1c(=O)c2[nH]c(C)nc2n(-c2ccccc2)c1=O [Compound B, 1propyl-3-phenyl-8-methylxanthine, reference compound] | 7 | > 100 | –
